Test results: patent US20090137565A1, “Method for treatment of movement disorders” (The Trustees of Columbia University in the City of New York, priority 2004, published 2009)

Key:
[1] = system: alcohol-responsive myoclonus with dystonia; details: single patient, recently reported; cited from earlier work
[2] = system: medication-refractory, ethanol-responsive myoclonus (PHM, MD, PME); test: Twenty-patient open-label trial of sodium oxybate, blinded UMRS (myoclonus patients); assay type: in vivo, human; details: for Stim-sens. myoclonus score: dose 0 score 5.8; for Functional performance score: dose 0 score 12.9; for Action myoclonus score: dose 0 score 45.3; for Myoclonus at rest score: dose 0 score 7.4
From the text: (§1) Twenty patients age 18 or older were recruited from a clinical practice at the Movement Disorders Division of Columbia University Medical Center. Eligible patients with medication-refractory, ethanol-responsive myoclonus (6 PHM, 3 MD, 2 PME) or ET (9 patients) (Table 1) were offered enrollment from February 2004 to March 2005. The medical center's institutional review board approved the protocol, and written informed consent was obtained from all participants. All had myoclonus or ET that improved (by self-report) with ingestion of ethanol. All patients were medication-refractory, defined as obtaining inadequate benefit from best medical treatment or being unable to tolerate treatment. The dose and timing of other medications were kept constant before and during the trial.
(§2) Twelve men and 8 women enrolled. Results from patients #6, and #s 1, 2, 7, 12, and 13 were reported previously. Frucht, S. J., et al. Mov Disord 20:745-51 (2005); Frucht, S. J., et al. Mov Disord 20:1330-7 (2005). Mean age/symptom duration was 43.9 yrs/12.3 yrs (myoclonus) and 71.2 yrs/26.7 yrs (ET). Patients with myoclonus were examined and videotaped at each visit using the Unified Myoclonus Rating Scale (UMRS), and patients with ET were examined and videotaped using the modified Washington Heights Inwood Genetic Essential Tremor Rating Scale (WHIGET; Appendix 1). Frucht, S. J., et al. Mov Disord 20:1330-7 (2005). After initial baseline examination and videotaping, patients took 1 gm of sodium oxybate by mouth (2 ml of the standard 0.5 gm/ml solution dissolved in 60 ml of water), and one hour later the videotaped examination was repeated. Patients were maintained on a dose of 1 gm T.I.D. (taken before meals) until their next office visit two weeks later, when the examination and videotaping were repeated one hour after receiving 1.5 gm of sodium oxybate. Subsequent visits and dose titrations at two-week intervals were repeated until the maximum dose was reached (3 gm T.I.D), patients were satisfied with the results of treatment, or until they developed side effects that they viewed as troublesome. Dosing for patients #1, 2, 6, 7, 12, and 13 was slightly different (1 gm BID, with dose increments of 2 gm to maximum dose of 4 gm BID), but office visits and videotaping protocol were otherwise identical.
(§3) The entire videotape segments and writing samples from each visit were copied and randomly ordered, and identifying features that might reveal trial order or drug dose were removed. A blinded movement disorder neurologist scored each videotape segment using the UMRS or the WHIGET. Sub-scores for each visit were calculated as described previously. Frucht, S. J., et al. Mov Disord 20:1330-7 (2005). Based on data from the first two ET cases, and assuming alpha=0.05, power=80%, and a 25% reduction in post-treatment tremor severity, we calculated that eight ET cases were required. A similar number of myoclonus patients would provide >80% power to detect a 25% reduction in the severity of post-treatment action myoclonus. Paired t tests were performed for scores pre- and post-treatment.

[3] = system: medication-refractory, ethanol-responsive ET; test: Twenty-patient open-label trial of sodium oxybate, blinded WHIGET (ET patients); assay type: in vivo, human; details: for Kinetic tremor score: dose 0 score 15.4; for Postural tremor score: dose 0 score 2.4
From the text: as §1, §2, §3

SMILES: O=C([O-])CCCO.[Na+] [GHB, 4-hydroxybutanoic acid monosodium salt]
- effect on myoclonus [1]: improved myoclonus
- Stim-sens. myoclonus score ([2]; 1 gm, p 0.01**): 3.2 (0.01)**
- Functional performance score ([2]; 1 gm, p 0.044*): 11.0 (0.044)*
- Action myoclonus score ([2]; 1 gm, p 0.047*): 33.4 (0.047)*
- Functional performance score ([2]; 1.5 gm, p 0.007*): 9.6 (0.007)*
- Stim-sens. myoclonus score ([2]; 1.5 gm, p 0.11): 3.2 (0.11)
- Action myoclonus score ([2]; 1.5 gm, p 0.122): 26.8 (0.122)
- Myoclonus at rest score ([2]; 1.5 gm, p 0.247): 1.2 (0.247)
- Stim-sens. myoclonus score ([2]; 2 gm, p 0.001**): 2.8 (0.001)**
- Action myoclonus score ([2]; 2 gm, p 0.005*): 30.9 (0.005)*
- Myoclonus at rest score ([2]; 2 gm, p 0.047*): 3.6 (0.047)*
- Functional performance score ([2]; 2 gm, p <0.001**): 6.0 (<0.001)**
- Functional performance score ([2]; 2.5 gm, p 0.002**): 7.4 (0.002)**
- Action myoclonus score ([2]; 2.5 gm, p 0.046*): 26.2 (0.046)*
- Myoclonus at rest score ([2]; 2.5 gm, p 0.055): 0.6 (0.055)
- Stim-sens. myoclonus score ([2]; 2.5 gm, p <0.001**): 1.4 (<0.001)**
- Stim-sens. myoclonus score ([2]; 3.0 gm, p 0.02*): 1.0 (0.02)*
- Functional performance score ([2]; 3.0 gm, p 0.059): 6.9 (0.059)
- Action myoclonus score ([2]; 3.0 gm, p 0.064): 33.0 (0.064)
- Myoclonus at rest score ([2]; 3.0 gm, p 0.129): 0.75 (0.129)
- Myoclonus at rest score ([2]; individ. dose 1 gm, p 0.137 vs pre-treatment): 4.9 (0.137)
- dose of maximal improvement ([2]; myoclonus measures): 2.5 gm
- Myoclonus at rest ([2]; patient #3 (MD), after receiving 3 mg (so in the source)): disappeared
- stimulus-sensitive myoclonus to sound and pinprick ([2]; patient #4 (PME), after 3 gm): only stimulus-sensitive myoclonus of the right hand remained
- action myoclonus on finger-to-nose ([2]; patient #6 (PHM), standing unassisted now possible): significantly improved
- Myoclonus at rest ([2]; patient #11 (PHM), after receiving 2.5 mg (so in the source)): disappeared
- functional performance, using a soupspoon ([2]; patients #9 (PHM) and #5 (PME)): improved
- Kinetic tremor score ([3]; 1 gm, p 0.011*): 11.5 (0.011)*
- Postural tremor score ([3]; 1 gm, p 0.029*): 1.7 (0.029)*
- Postural tremor score ([3]; 1.5 gm, p 0.001**): 1.1 (0.001)**
- Kinetic tremor score ([3]; 1.5 gm, p 0.006**): 8.8 (0.006)**
- Postural tremor score ([3]; 2 gm, p 0.006**): 1.4 (0.006)**
- Kinetic tremor score ([3]; 2 gm, p 0.006**): 9.1 (0.006)**
- dose of maximal improvement ([3]; ET, postural and kinetic tremor scores): 1.5 gm
- time at which improvement in action tremor during pouring was evident ([3]; patient #15 (ET), after 1.5 gm): 45 min
- time at which improvement in action tremor during pouring was obvious ([3]; patient #15 (ET), after 1.5 gm): 60 min
- kinetic tremor during tasks (drawing, sipping water from spoon) ([3]; patient #17 (ET), FIG. 4): Improvement in kinetic tremor during tasks was evident
